Results on 30 compounds are retold here after patent US9212182B2, “Bicyclic sulfonamide compounds as sodium channel inhibitors” (AMGEN INC., priority 2013, dated 2015).

For this assay, the target named is Nav 1.7 (Homo sapiens (Human), UniProt Q15858). As to the kind of experiment: in-vitro Nav 1.7 PX (IC50). Format: cell-based.
The mark [1] stands for this setting: in-vitro Nav 1.7 PX data (PatchXpress).

Like-named read-outs stand apart in the source and are kept apart here.

Sequence of Nav 1.7 (Q15858 whole entry): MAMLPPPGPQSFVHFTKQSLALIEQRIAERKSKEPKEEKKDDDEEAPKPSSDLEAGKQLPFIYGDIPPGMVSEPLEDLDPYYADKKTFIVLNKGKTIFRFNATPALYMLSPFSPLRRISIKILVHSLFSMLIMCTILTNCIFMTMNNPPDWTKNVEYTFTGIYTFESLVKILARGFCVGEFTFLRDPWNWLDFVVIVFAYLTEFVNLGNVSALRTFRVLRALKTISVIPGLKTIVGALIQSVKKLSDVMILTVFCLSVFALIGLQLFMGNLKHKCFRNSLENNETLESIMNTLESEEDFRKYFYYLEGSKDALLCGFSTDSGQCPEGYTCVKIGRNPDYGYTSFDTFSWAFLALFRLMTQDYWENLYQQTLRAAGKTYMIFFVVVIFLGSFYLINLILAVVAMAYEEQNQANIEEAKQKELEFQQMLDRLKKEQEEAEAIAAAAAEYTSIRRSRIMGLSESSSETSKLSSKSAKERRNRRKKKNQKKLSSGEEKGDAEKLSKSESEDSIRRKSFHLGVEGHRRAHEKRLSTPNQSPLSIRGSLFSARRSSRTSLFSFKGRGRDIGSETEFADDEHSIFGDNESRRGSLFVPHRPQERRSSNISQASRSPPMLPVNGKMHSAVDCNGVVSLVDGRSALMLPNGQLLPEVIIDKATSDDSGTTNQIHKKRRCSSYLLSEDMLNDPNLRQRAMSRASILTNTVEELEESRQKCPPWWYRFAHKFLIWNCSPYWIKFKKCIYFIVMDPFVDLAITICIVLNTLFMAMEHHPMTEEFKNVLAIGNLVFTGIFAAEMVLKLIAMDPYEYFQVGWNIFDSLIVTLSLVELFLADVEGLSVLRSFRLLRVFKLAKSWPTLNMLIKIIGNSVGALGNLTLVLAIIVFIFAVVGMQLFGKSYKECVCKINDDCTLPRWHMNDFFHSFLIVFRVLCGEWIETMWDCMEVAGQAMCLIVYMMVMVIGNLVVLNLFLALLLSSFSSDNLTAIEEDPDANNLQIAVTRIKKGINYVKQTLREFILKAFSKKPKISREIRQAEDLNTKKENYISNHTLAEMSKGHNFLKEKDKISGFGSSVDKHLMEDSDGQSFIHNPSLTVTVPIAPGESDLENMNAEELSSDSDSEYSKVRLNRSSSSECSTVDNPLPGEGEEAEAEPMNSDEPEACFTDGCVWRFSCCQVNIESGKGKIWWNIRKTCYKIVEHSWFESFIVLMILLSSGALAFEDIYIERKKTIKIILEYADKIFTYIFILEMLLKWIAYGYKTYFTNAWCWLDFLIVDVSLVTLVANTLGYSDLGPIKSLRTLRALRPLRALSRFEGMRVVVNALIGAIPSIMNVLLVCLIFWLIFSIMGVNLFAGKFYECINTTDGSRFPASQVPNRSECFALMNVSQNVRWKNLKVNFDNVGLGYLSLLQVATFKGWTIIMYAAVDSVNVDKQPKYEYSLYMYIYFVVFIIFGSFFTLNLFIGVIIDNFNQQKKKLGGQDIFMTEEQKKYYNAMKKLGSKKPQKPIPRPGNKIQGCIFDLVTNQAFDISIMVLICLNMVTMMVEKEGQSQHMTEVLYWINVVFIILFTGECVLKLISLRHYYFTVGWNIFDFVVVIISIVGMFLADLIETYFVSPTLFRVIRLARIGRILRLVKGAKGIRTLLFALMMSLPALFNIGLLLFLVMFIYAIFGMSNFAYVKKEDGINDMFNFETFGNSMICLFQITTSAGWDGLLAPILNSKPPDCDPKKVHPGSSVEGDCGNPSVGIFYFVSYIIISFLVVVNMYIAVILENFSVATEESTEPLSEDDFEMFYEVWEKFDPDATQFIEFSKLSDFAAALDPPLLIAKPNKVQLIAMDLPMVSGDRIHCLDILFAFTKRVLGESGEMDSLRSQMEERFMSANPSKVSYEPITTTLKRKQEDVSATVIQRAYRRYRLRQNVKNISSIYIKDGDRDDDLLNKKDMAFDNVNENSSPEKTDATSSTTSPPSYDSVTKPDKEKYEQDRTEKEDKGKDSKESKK

Broadly, the IC50 is the concentration needed to halve the response being measured. Compound `COc1cc(-c2cccc(C#N)c2)c(F)cc1-n1c(=O)ccc2cc(S(=O)(=O)Nc3ccon3)ccc21` (atropisomer, axis not shown; (P)) [Example 498, (P)-1-(3′-cyano-2-fluoro-5-methoxy-4-biphenylyl)-N-3-isoxazolyl-2-oxo-1,2-dihydro-6-quinolinesulfonamide] registered an IC50 (in-vitro PatchXpress (PX)) of 0.034 µM.

Compound `COc1ccc(-c2cccc(C#N)c2)cc1-n1c(=O)ccc2cc(S(=O)(=O)Nc3ccon3)ccc21` [Example 493, 1-(3′-cyano-4-methoxy-3-biphenylyl)-N-3-isoxazolyl-2-oxo-1,2-dihydro-6-quinolinesulfonamide] gave a half-inhibitory concentration (IC50) of 0.418 µM. For the setting “in-vitro Nav 1.7 PX data”, `COc1cc(-c2cccc(C(F)(F)F)c2)ccc1-n1c(=O)ccc2cc(S(=O)(=O)Nc3ccc(F)cn3)ccc21` [Example 918, N-(5-fluoro-2-pyridinyl)-1-(3-methoxy-3′-(trifluoromethyl)-4-biphenylyl)-2-oxo-1,2-dihydro-6-quinolinesulfonamide] returned an IC50 of 0.093 µM.

For `COc1ccc(-c2cc(F)cc(Cl)c2)cc1-n1c(=O)ccc2cc(S(=O)(=O)Nc3cccnn3)ccc21` [Example 902, 1-(3′-chloro-5′-fluoro-4-methoxy-3-biphenylyl)-2-oxo-N-3-pyridazinyl-1,2-dihydro-6-quinolinesulfonamide], it took 0.077 µM to reach half-maximal inhibition (in-vitro Nav 1.7 PX data) (IC50).

As for `COc1cc(-c2cccc(F)c2)c(F)cc1-n1c(=O)cc(C)c2cc(S(=O)(=O)Nc3ccon3)ccc21` (atropisomer, axis not shown; (P)) [Example 572, (P)-1-(2,3′-difluoro-5-methoxy-4-biphenylyl)-N-3-isoxazolyl-4-methyl-2-oxo-1,2-dihydro-6-quinolinesulfonamide], the IC50 is 0.485 µM. As to `COc1cc(F)cc(-c2ccc(-n3c(=O)ccc4cc(S(=O)(=O)Nc5ncccn5)ccc43)c(OC)c2)c1` [Example 996, 1-(3′-fluoro-3,5′-dimethoxy-4-biphenylyl)-2-oxo-N-2-pyrimidinyl-1,2-dihydro-6-quinolinesulfonamide], where the note is “in-vitro Nav 1.7 PX data”, half-maximal inhibition (IC50) required 0.052 µM.

As for `COc1ccc(-c2ccc(Cl)c(F)c2)cc1-n1c(=O)ccc2cc(S(=O)(=O)Nc3ccon3)ccc21` [Example 874, 1-(4′-chloro-3′-fluoro-4-methoxy-3-biphenylyl)-N-3-isoxazolyl-2-oxo-1,2-dihydro-6-quinolinesulfonamide], the IC50 (in-vitro Nav 1.7 PX data) stood at 0.033 µM. As to `COc1nc(Oc2cc(F)ccc2F)c(Cl)cc1-n1c(=O)ccc2cc(S(=O)(=O)Nc3ccon3)ccc21` [Example 1225, 1-(5-chloro-6-(2,5-difluorophenoxy)-2-methoxy-3-pyridinyl)-N-3-isoxazolyl-2-oxo-1,2-dihydro-6-quinolinesulfonamide], half-maximal inhibition (IC50) was put at 0.846 µM. Take `COc1cc(-c2cccc(C)c2)ccc1-n1c(=O)ccc2cc(S(=O)(=O)Nc3ncccn3)ccc21` [Example 1117, 1-(3-methoxy-3′-methyl-4-biphenylyl)-2-oxo-N-2-pyrimidinyl-1,2-dihydro-6-quinolinesulfonamide]: half-maximal inhibition (in-vitro Nav 1.7 PX data) (IC50) was put at 0.059 µM. `COc1cc(-c2cccc(C(F)(F)F)c2)ccc1-n1c(=O)ccc2cc(S(=O)(=O)Nc3ncc(F)cn3)ccc21` [Example 917, N-(5-fluoro-2-pyrimidinyl)-1-(3-methoxy-3′-(trifluoromethyl)-4-biphenylyl)-2-oxo-1,2-dihydro-6-quinolinesulfonamide] came in with an IC50 (in-vitro Nav 1.7 PX data) of 0.031 µM. Same read-out and setting: the figure for `COc1cc(-c2ccc(Cl)cc2)c(F)cc1-n1c(=O)ccc2cc(S(=O)(=O)Nc3cccnn3)ccc21` [Example 746, 1-(4′-chloro-2-fluoro-5-methoxy-4-biphenylyl)-2-oxo-N-3-pyridazinyl-1,2-dihydro-6-quinolinesulfonamide] is 0.024 µM. The same measure, in the same setting: the figure for `COc1cccc(-c2nc(OC)c(-n3c(=O)ccc4cc(S(=O)(=O)Nc5ccon5)ccc43)cc2Cl)c1` [Example 1093, 1-(5-chloro-2-methoxy-6-(3-methoxyphenyl)-3-pyridinyl)-N-3-isoxazolyl-2-oxo-1,2-dihydro-6-quinolinesulfonamide] is 4.95 µM. Same read-out and setting: in the case of `COc1cc(-c2ccc(Cl)c(C)c2)c(F)cc1-n1c(=O)ccc2cc(S(=O)(=O)Nc3ccsn3)ccc21` [Example 1073, 1-(4′-chloro-2-fluoro-5-methoxy-3′-methyl-4-biphenylyl)-N-3-isothiazolyl-2-oxo-1,2-dihydro-6-quinolinesulfonamide] it was 0.023 µM. The compound “1-(4′-chloro-2-fluoro-3′,5-dimethyl-4-biphenylyl)-2-oxo-N-3-pyridazinyl-1,2-dihydro-6-quinolinesulfonamide [Example 973]” yielded an IC50 (in-vitro Nav 1.7 PX data) of 0.09 µM. Consider `COc1cc(Cl)c(-c2cccc(F)c2)cc1-n1c(=O)ccc2cc(S(=O)(=O)Nc3ccon3)ccc21` (atropisomer, axis not shown; (M)) [Example 609, (M)-1-(6-chloro-3′-fluoro-4-methoxy-3-biphenylyl)-N-3-isoxazolyl-2-oxo-1,2-dihydro-6-quinolinesulfonamide], for which the IC50 (in-vitro Nav 1.7 PX data) came out at 10.1 µM. Turning to `COc1cc(Br)c(F)cc1-n1c(=O)ccc2cc(S(=O)(=O)Nc3cc(OC4CCC4)ncn3)ccc21` (atropisomer, axis not shown; (P)) [Example 1188, (P)-1-(4-bromo-5-fluoro-2-methoxyphenyl)-N-(6-(cyclobutyloxy)-4-pyrimidinyl)-2-oxo-1,2-dihydro-6-quinolinesulfonamide], the IC50 was 10.6 µM. Consider `COc1cc(-c2cc(OC)c(-n3c(=O)ccc4cc(S(=O)(=O)Nc5ncco5)ccc43)cc2F)ccc1Cl` [Example 1040, 1-(4′-chloro-2-fluoro-3′,5-dimethoxy-4-biphenylyl)-N-1,3-oxazol-2-yl-2-oxo-1,2-dihydro-6-quinolinesulfonamide], for which the midpoint of inhibition under setting [1], the IC50, lay at 0.031 µM. With `COc1cc(-c2ccc(C)c(Cl)c2)c(F)cc1-n1c(=O)ccc2cc(S(=O)(=O)Nc3ccon3)ccc21` (atropisomer, axis not shown; (M)) [Example 529, (M)-1-(3′-chloro-2-fluoro-5-methoxy-4′-methyl-4-biphenylyl)-N-3-isoxazolyl-2-oxo-1,2-dihydro-6-quinolinesulfonamide], the 50% inhibitory concentration (IC50) (in-vitro PatchXpress (PX)) is 3.15 µM. For `COc1ccc(-c2cc(F)ccc2F)cc1-n1c(=O)ccc2cc(S(=O)(=O)Nc3ccon3)ccc21` [Example 840, 1-(2′,5′-difluoro-4-methoxy-3-biphenylyl)-N-3-isoxazolyl-2-oxo-1,2-dihydro-6-quinolinesulfonamide], half-maximal inhibition (in-vitro Nav 1.7 PX data) (IC50) required 0.163 µM. Compound `O=c1ccc2cc(S(=O)(=O)Nc3ccon3)ccc2n1-c1cc(F)c(-c2cc(F)cc(F)c2)cc1O` [Example 624, N-(isoxazol-3-yl)-2-oxo-1-(2,3′,5′-trifluoro-5-hydroxy-[1,1′-biphenyl]-4-yl)-1,2-dihydroquinoline-6-sulfonamide] showed an IC50 under setting [1] of 1.73 µM. The compound `COc1cc(-c2ccc(F)cc2)c(F)cc1-n1c(=O)ccc2cc(S(=O)(=O)Nc3ccnc(C)n3)ccc21` [Example 773, 1-(2,4′-difluoro-5-methoxy-4-biphenylyl)-N-(2-methyl-4-pyrimidinyl)-2-oxo-1,2-dihydro-6-quinolinesulfonamide] returned an IC50 (in-vitro Nav 1.7 PX data) of 0.274 µM.

Compound `COc1cc(-c2ccc(Cl)c(C#N)c2)c(F)cc1-n1c(=O)ccc2cc(S(=O)(=O)Nc3ncccn3)ccc21` [Example 871, 1-(4′-chloro-3′-cyano-2-fluoro-5-methoxy-4-biphenylyl)-2-oxo-N-2-pyrimidinyl-1,2-dihydro-6-quinolinesulfonamide] yielded an IC50 (in-vitro Nav 1.7 PX data) of 0.044 µM. With `COc1cc(-c2cc(C)cc(C#N)c2)c(F)cc1-n1c(=O)ccc2cc(S(=O)(=O)Nc3ccon3)ccc21` (atropisomer, axis not shown; (P)) [Example 526, (P)-1-(3′-cyano-2-fluoro-5-methoxy-5′-methyl-4-biphenylyl)-N-3-isoxazolyl-2-oxo-1,2-dihydro-6-quinolinesulfonamide], 0.031 µM corresponded to half-maximal inhibition (in-vitro PatchXpress (PX)) (IC50). On to `COc1cc(-c2ccccc2Cl)c(F)cc1-n1c(=O)ccc2cc(S(=O)(=O)Nc3ccon3)ccc21` [Example 952, 1-(2′-chloro-2-fluoro-5-methoxy-4-biphenylyl)-N-3-isoxazolyl-2-oxo-1,2-dihydro-6-quinolinesulfonamide], for which, where the note is “in-vitro Nav 1.7 PX data”, the IC50 was 0.062 µM. As to `CCCOc1cc(NS(=O)(=O)c2ccc3c(ccc(=O)n3-c3cc(F)c(Br)cc3OC)c2)ncn1` (atropisomer, axis not shown; (P)) [Example 1186, (P)-1-(4-bromo-5-fluoro-2-methoxyphenyl)-2-oxo-N-(6-propoxy-4-pyrimidinyl)-1,2-dihydro-6-quinolinesulfonamide], the IC50 was determined as 0.246 µM. `COc1cc(-c2ccc(Cl)c(C)c2)c(C)cc1-n1c(=O)ccc2cc(S(=O)(=O)Nc3ccon3)ccc21` (atropisomer, axis not shown; (M)) [Example 422, (M)-1-(4′-chloro-5-methoxy-2,3′-dimethyl-4-biphenylyl)-N-3-isoxazolyl-2-oxo-1,2-dihydro-6-quinolinesulfonamide] showed an IC50 of 6.09 µM.

On to `COc1cc(-c2ccc(Cl)c(C)c2)ccc1-n1c(=O)cnc2cc(S(=O)(=O)Nc3ccon3)ccc21` [Example 1195, 1-(4′-chloro-3-methoxy-3′-methyl-4-biphenylyl)-N-3-isoxazolyl-2-oxo-1,2-dihydro-6-quinoxalinesulfonamide], for which the midpoint of inhibition, the IC50, lay at 0.054 µM. In the case of `COc1cccc(-c2cc(OC)c(-n3c(=O)ccc4cc(S(=O)(=O)Nc5ccon5)ccc43)cc2F)c1` [Example 709, 1-(2-fluoro-3′,5-dimethoxy-4-biphenylyl)-N-3-isoxazolyl-2-oxo-1,2-dihydro-6-quinolinesulfonamide], the midpoint of inhibition (in-vitro Nav 1.7 PX data), the IC50, lay at 0.047 µM. On the same count and under the same terms, in the case of `COc1ccc(-c2ccc(Cl)cc2)cc1-n1c(=O)ccc2cc(S(=O)(=O)Nc3ccon3)ccc21` [Example 845, 1-(4′-chloro-4-methoxy-3-biphenylyl)-N-3-isoxazolyl-2-oxo-1,2-dihydro-6-quinolinesulfonamide] it was 0.057 µM; in that of `COc1cc(F)cc(-c2ccc(-n3c(=O)ccc4cc(S(=O)(=O)Nc5cc(C)ncn5)ccc43)c(OC)c2)c1` [Example 1004, 1-(3′-fluoro-3,5′-dimethoxy-4-biphenylyl)-N-(6-methyl-4-pyrimidinyl)-2-oxo-1,2-dihydro-6-quinolinesulfonamide], 0.219 µM.
